From the CheMixHub viscosity set
Several values for one entry are separate records, joined by “and”; a condition that tells them apart may be missing. Equal values may be shown once.

Experiment: xn = mol fraction of the nth substance listed

CCOCCOCCO + ClC=C(Cl)Cl
298.15 K, 101.33 kPa
Conditions	viscosity [mPa·s]
x1 = 0.0082	0.539
x1 = 0.0263	0.563
x1 = 0.0381	0.58
x1 = 0.0517	0.602
x1 = 0.0641	0.62
x1 = 0.0756	0.639
x1 = 0.0944	0.669
x1 = 0.129	0.736
x1 = 0.1724	0.823
x1 = 0.2108	0.91
x1 = 0.2459	0.997
x1 = 0.2921	1.117
x1 = 0.3336	1.235
x1 = 0.3791	1.376
x1 = 0.4231	1.528
x1 = 0.457	1.659
x1 = 0.4908	1.788
x1 = 0.5204	1.902
x1 = 0.557	2.042
x1 = 0.5875	2.163
x1 = 0.632	2.342
x1 = 0.6736	2.519
x1 = 0.7163	2.701
x1 = 0.7635	2.912
x1 = 0.7976	3.068
x1 = 0.8333	3.224
x1 = 0.8779	3.423
x1 = 0.9203	3.621
x1 = 0.9414	3.723
x1 = 0.9717	3.857
x2 = 0.018	3.895

CCCCCCCCCCCCCC + Clc1ccccc1
viscosity [mPa·s], 101 kPa
Conditions	x1 = 0.1001	x1 = 0.1937	x1 = 0.295	x1 = 0.3916	x1 = 0.494	x1 = 0.5998	x1 = 0.6984	x1 = 0.8002	x1 = 0.9001
298.15 K	0.844	0.945	1.063	1.151	1.266	1.38	1.495	1.609	1.724
303.15 K	0.789	0.877	0.964	1.097	1.161	1.226	1.291	1.354	1.419
308.15 K	0.746	0.819	0.932	0.991	1.041	1.19	1.241	1.219	1.397

ClC(Cl)=C(Cl)Cl + Clc1ccccc1
303.15 K, 101 kPa
Conditions	viscosity [mPa·s]
x1 = 0.1416	0.716
x1 = 0.2048	0.717
x1 = 0.2727	0.718
x1 = 0.3562	0.72
x1 = 0.4651	0.728
x1 = 0.5412	0.739
x1 = 0.6279	0.751
x1 = 0.718	0.766
x1 = 0.8422	0.786
x1 = 0.9302	0.802

Cc1nc(C)c(C)[nH]1 + O
viscosity [mPa·s], 100 kPa
Conditions	x1 = 0.0179	x1 = 0.0393	x1 = 0.0655	x1 = 0.0983	x1 = 0.141
298.15 K	1.317	2.01	3.12	5.27	9.35
303.15 K	1.157	1.754	2.71	4.41	7.38
313.15 K	0.944	1.384	2.08	3.24	4.87
323.15 K	0.774	1.1	1.598	2.4	3.44

NCC(=O)O + O
viscosity
Conditions	101 kPa	101.33 kPa
293.15 K, x1 = 0.0194	1.181 mPa·s	–
293.15 K, x1 = 0.0294	1.272 mPa·s	–
293.15 K, x1 = 0.036	1.332 mPa·s	–
298.15 K, x1 = 0.0002174	0.8944 mPa·s and 0.8944 mPa·s	–
298.15 K, x1 = 0.0004	0.894 mPa·s	–
298.15 K, x1 = 0.0007	0.8972 mPa·s	–
298.15 K, x1 = 0.0009	0.8942 mPa·s	–
298.15 K, x1 = 0.0009413	0.9111 mPa·s and 0.9111 mPa·s	–
298.15 K, x1 = 0.00135	0.8968 mPa·s	–
298.15 K, x1 = 0.0018	0.8995 mPa·s	–
298.15 K, x1 = 0.002695	0.9053 mPa·s	–
298.15 K, x1 = 0.003657	0.9319 mPa·s and 0.9319 mPa·s	–
298.15 K, x1 = 0.005496	0.932 mPa·s and 0.932 mPa·s	–
298.15 K, x1 = 0.008976	0.9754 mPa·s and 0.9754 mPa·s	–
298.15 K, x1 = 0.0108	0.9757 mPa·s and 0.9757 mPa·s	–
298.15 K, x1 = 0.01215	0.9853 mPa·s and 0.9853 mPa·s	–
298.15 K, x1 = 0.01456	0.986 mPa·s and 0.986 mPa·s	–
303.15 K, x1 = 0.0003	0.803 mPa·s	–
303.15 K, x1 = 0.0004	0.8014 mPa·s	–
303.15 K, x1 = 0.0007	0.8046 mPa·s	–
303.15 K, x1 = 0.0009	0.801 mPa·s	–
303.15 K, x1 = 0.00135	0.8035 mPa·s	–
303.15 K, x1 = 0.0018	0.8126 mPa·s	–
303.15 K, x1 = 0.002	0.816 mPa·s	–
303.15 K, x1 = 0.0022	0.8155 mPa·s	–
303.15 K, x1 = 0.002695	0.8117 mPa·s	–
303.15 K, x1 = 0.0029	0.8217 mPa·s	–
303.15 K, x1 = 0.003592	0.8207 mPa·s	–
303.15 K, x1 = 0.0063	0.8489 mPa·s	–
303.15 K, x1 = 0.0107	0.8659 mPa·s	–
303.15 K, x1 = 0.01246	0.8788 mPa·s	–
303.15 K, x1 = 0.0129	0.8994 mPa·s	–
303.15 K, x1 = 0.0194	0.9492 mPa·s	–
303.15 K, x1 = 0.0294	1.026 mPa·s	–
303.15 K, x1 = 0.036	1.076 mPa·s	–
308.15 K, x1 = 0.00135	0.7251 mPa·s	–
308.15 K, x1 = 0.0018	0.7276 mPa·s and 0.7355 mPa·s	0.7365 mPa·s
308.15 K, x1 = 0.0022	0.7378 mPa·s	–
308.15 K, x1 = 0.0025	0.7407 mPa·s	–
308.15 K, x1 = 0.0029	0.7439 mPa·s	–
308.15 K, x1 = 0.003657	0.7609 mPa·s and 0.7609 mPa·s	–
308.15 K, x1 = 0.005496	0.7659 mPa·s and 0.7659 mPa·s	–
308.15 K, x1 = 0.007374	0.7773 mPa·s and 0.7773 mPa·s	–
308.15 K, x1 = 0.0108	0.8059 mPa·s and 0.8059 mPa·s	–
308.15 K, x1 = 0.01215	0.806 mPa·s and 0.806 mPa·s	–
308.15 K, x1 = 0.01456	0.8089 mPa·s and 0.8089 mPa·s	–
313.15 K, x1 = 0.001	0.664 mPa·s and 0.6667 mPa·s	–
313.15 K, x1 = 0.00135	0.6585 mPa·s	–
313.15 K, x1 = 0.002	0.667 mPa·s	–
313.15 K, x1 = 0.0022	0.6712 mPa·s	–
313.15 K, x1 = 0.0025	0.6739 mPa·s	–
313.15 K, x1 = 0.005375	0.6819 mPa·s	–
313.15 K, x1 = 0.0129	0.727 mPa·s	–
313.15 K, x1 = 0.0194	0.7628 mPa·s	–
313.15 K, x1 = 0.0294	0.8179 mPa·s	–
313.15 K, x1 = 0.036	0.8542 mPa·s	–
318.15 K, x1 = 0.0002174	0.6164 mPa·s and 0.6164 mPa·s	–
318.15 K, x1 = 0.0009	0.6007 mPa·s	–
318.15 K, x1 = 0.0018	0.6052 mPa·s	–
318.15 K, x1 = 0.001865	0.6321 mPa·s	–
318.15 K, x1 = 0.002245	0.6076 mPa·s	–
318.15 K, x1 = 0.002695	0.6099 mPa·s	–
318.15 K, x1 = 0.005496	0.6417 mPa·s	–
318.15 K, x1 = 0.007374	0.6579 mPa·s and 0.6579 mPa·s	–
318.15 K, x1 = 0.008976	0.6725 mPa·s and 0.6725 mPa·s	–
318.15 K, x1 = 0.0108	0.6756 mPa·s and 0.6756 mPa·s	–
318.15 K, x1 = 0.01215	0.6757 mPa·s and 0.6757 mPa·s	–
318.15 K, x1 = 0.01456	0.6821 mPa·s and 0.6821 mPa·s	–
323.15 K, x1 = 0.0003	0.5508 mPa·s	–
323.15 K, x1 = 0.002	0.5589 mPa·s	–
323.15 K, x1 = 0.008932	0.5878 mPa·s	–
323.15 K, x1 = 0.01246	0.6035 mPa·s	–
323.15 K, x1 = 0.0194	0.6412 mPa·s	–
323.15 K, x1 = 0.0294	0.6885 mPa·s	–
323.15 K, x1 = 0.036	0.7197 mPa·s	–

O=C(c1ccccc1)c1ccc2n1CCC2C(=O)[O-].[NH3+]C(CO)(CO)CO (stereo not given) + O
viscosity [mPa·s], 101 kPa
Conditions	293.15 K	298.15 K	303.15 K	308.15 K	313.15 K
x1 = 0.0002	1.037	0.9251	0.8319	0.7538	0.688
x1 = 0.0007	1.071	0.9598	0.8666	0.7882	0.723
x1 = 0.001	1.105	0.9936	0.9005	0.822	0.7569

O=C[C@H](O)[C@@H](O)[C@H](O[C@@H]1O[C@H](CO)[C@H](O)[C@H](O)[C@H]1O)[C@H](O)CO + O
viscosity [mPa·s]
Conditions	100 kPa	101 kPa
293.15 K, x1 = 0.002	–	1.074
293.15 K, x1 = 0.004	–	1.155
293.15 K, x1 = 0.005	–	1.241
298.15 K, x1 = 0.002	0.976	0.9875
298.15 K, x1 = 0.004	–	1.065
298.15 K, x1 = 0.005	–	1.149
303.15 K, x1 = 0.002	0.873	0.8893
303.15 K, x1 = 0.004	–	0.9654
303.15 K, x1 = 0.005	–	1.047
308.15 K, x1 = 0.001805	–	0.784
308.15 K, x1 = 0.002	0.786	0.7922
308.15 K, x1 = 0.003683	–	0.864
308.15 K, x1 = 0.004	–	0.8716
308.15 K, x1 = 0.005	–	0.9524
308.15 K, x1 = 0.005432	–	0.934
308.15 K, x1 = 0.006317	–	0.966
308.15 K, x1 = 0.007218	–	1.012
308.15 K, x1 = 0.008098	–	1.063
313.15 K, x1 = 0.002	0.709	0.7014
313.15 K, x1 = 0.004	–	0.7822
313.15 K, x1 = 0.005	–	0.8636
318.15 K, x1 = 0.001802	–	0.601
318.15 K, x1 = 0.002729	–	0.621
318.15 K, x1 = 0.003613	–	0.642
318.15 K, x1 = 0.004521	–	0.67
318.15 K, x1 = 0.006298	–	0.725
318.15 K, x1 = 0.007249	–	0.757
318.15 K, x1 = 0.01074	–	0.885

[Li+].[OH-] + O
viscosity [mPa·s], 101 kPa
Conditions	x1 = 0.0089	x1 = 0.02284	x1 = 0.0263	x1 = 0.0385	x1 = 0.0513	x1 = 0.075	x1 = 0.0776	x1 = 0.08062
298.15 K	–	1.245	–	1.602	–	–	–	3.29
308.15 K	–	0.996	–	1.261	–	–	–	2.467
323.15 K	0.609	0.748	0.778	0.931	1.114	1.596	1.66	1.743
